Results on 28 molecules are retold here after US11299487B2, “Compounds and compositions as modulators of TLR signaling” (Neuropore Therapies, Inc., priority 2019, dated 2022).

Assay [1] concerns the target T1, human TLR2 (Homo sapiens, UniProt O60603).
T1 construct: host or cells: HEK-Blue hTLR2 (HEK-293)
The experiment in a line: HEK-Blue hTLR2 antagonism assay (SEAP reporter) with agonist Pam3CSK4 (TLR1/2 agonist). Format: cell-based. Conditions: Table A; HEK-Blue hTLR2 cells, ~3×EC50 Pam3CSK4, 18 h, SEAP OD 655 nm, 8-point dilutions. The procedure: (§1) Synthetic diacylated lipoprotein (Pam2CSK4, TLR2/6 agonist) and synthetic triacylated lipoprotein (Pam3CSK4, TLR1/2 agonist) were obtained from InvivoGen and were dissolved in endotoxin-free water to a concentration 1 mg/mL, vortexed until complete solubilization, and stored in aliquots at −20° C. Prior to addition to cells, an aliquot of the dissolved ligand was vortexed shortly and then was diluted in medium to 25 ng/mL Pam2CSK4 or 1000 ng/mL Pam3CSK4.
(§2) Test compounds were solubilized fresh to 10-20 mM stocks in DMSO and sonicated for 5-10 minutes in a water bath sonicator. Serial dilutions were prepared in DMSO, and then diluted in medium. The final concentration of DMSO used in the assay was 1%.
(§3) HEK-Blue hTLR2 reporter cells (InvivoGen) are HEK-293 cells stably expressing both the human TLR2 gene and a secreted embryonic alkaline phosphatase (SEAP) reporter construct downstream of NFκB promotor sites. HEK-Blue hTLR2 reporters were cultured according to manufacturer's protocol using Dulbecco's Modified Eagle Medium (DMEM; Gibco) containing 1× GlutaMax (Gibco), 10% heat-inactivated Fetal Bovine Serum (Gibco), Pen-Strep (50 U/mL penicillin, 50 μg/mL streptomycin, Gibco), 100 μg/mL Normocin (InvivoGen), and the selective antibiotic, 1×HEK-Blue Selection (InvivoGen). Quanti-Blue reagent (InvivoGen) for detection and quantification of secreted alkaline phosphatase was dissolved in 100 mL of endotoxin-free water, warmed to 37° C. for 30 minutes and then filtered using a 0.2 μm membrane.
(§4) On day 1, 50 μL of each test compound dilution in duplicates or a vehicle control was added to each well of a 96-well plate followed by addition of 150 μL of HEK-Blue hTLR2 cell suspension (1×10^5 cells/well) and incubated at 37° C./5% CO2 for 2 h. Next, 50 μL of an approximate 3×EC50 concentration of each agonist (Pam2CSK4 or Pam3CSK4) was added to the wells containing test compounds or the vehicle control. The plates were then incubated at 37° C./5% CO2 for 18 h. For each assay run, non-treated HEK-Blue hTLR2 cells were treated with serial dilutions of agonists to determine EC50 values for the respective run.
(§5) On day 2, secreted alkaline phosphatase (SEAP) activity was detected in cell culture supernatants. In brief, 20 μL was collected from each well and transferred to a 96-well plate. Next, 200 μL of Quanti-Blue detection reagent was added to each well. Plates were incubated at room temperature for 15 min. and SEAP activity was assessed by spectrophotometer OD reading at 655 nm. […] IC50 values were calculated based on 8-point dilutions for each compound.

For assay [2], the target named is T1, human TLR2. Description: HEK-Blue hTLR2 antagonism assay (SEAP reporter) with agonist Pam2CSK4 (TLR2/6 agonist). Format: cell-based. Conditions: Table A; HEK-Blue hTLR2 cells, ~3×EC50 Pam2CSK4, 18 h, SEAP OD 655 nm, 8-point dilutions. As for the experimental part: as §1, §2, §3, §4, §5

Each structure is given as a SMILES string. Where only a bound is given, the exact number is not on record here.

T1 sequence (O60603 21-784): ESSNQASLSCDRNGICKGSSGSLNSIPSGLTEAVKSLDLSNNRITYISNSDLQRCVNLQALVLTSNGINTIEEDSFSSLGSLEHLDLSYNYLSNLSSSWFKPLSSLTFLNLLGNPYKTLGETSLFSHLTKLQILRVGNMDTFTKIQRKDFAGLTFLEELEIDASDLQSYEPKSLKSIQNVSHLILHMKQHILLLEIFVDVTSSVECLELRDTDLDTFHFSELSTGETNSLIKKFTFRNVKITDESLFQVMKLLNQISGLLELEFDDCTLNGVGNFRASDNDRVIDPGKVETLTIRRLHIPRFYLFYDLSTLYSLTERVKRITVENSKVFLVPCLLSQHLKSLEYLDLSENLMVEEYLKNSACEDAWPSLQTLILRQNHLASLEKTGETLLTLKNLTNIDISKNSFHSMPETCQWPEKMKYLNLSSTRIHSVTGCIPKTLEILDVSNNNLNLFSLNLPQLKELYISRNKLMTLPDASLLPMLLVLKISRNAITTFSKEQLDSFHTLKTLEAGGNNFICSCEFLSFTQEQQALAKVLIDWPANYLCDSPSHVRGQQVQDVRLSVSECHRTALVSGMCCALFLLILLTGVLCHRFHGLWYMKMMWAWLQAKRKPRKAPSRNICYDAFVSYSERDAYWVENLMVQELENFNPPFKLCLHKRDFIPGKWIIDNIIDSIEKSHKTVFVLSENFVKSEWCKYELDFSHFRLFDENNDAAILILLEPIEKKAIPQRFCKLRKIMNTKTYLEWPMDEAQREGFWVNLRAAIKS

Take `COc1cc(-c2cnn(-c3cccc(Cl)c3)c2)cc(C=O)c1O` [Compound A3, 5-(1-(3-chlorophenyl)-1H-pyrazol-4-yl)-2-hydroxy-3-methoxybenzaldehyde]: the IC50 at human TLR2 [1] amounted to 8.3 µM; on human TLR2 [2] it was 9.9 µM.
The corresponding values for `COc1cc(-c2cnn(Cc3ccccc3)c2)cc(C=O)c1O` [Compound A4, 5-(1-benzyl-1H-pyrazol-4-yl)-2-hydroxy-3-methoxybenzaldehyde] are 10.5 µM and 8.5 µM.
As for `COc1cc(-c2cnn(C3CCOCC3)c2)cc(C=O)c1O` [Compound A5, 2-hydroxy-3-methoxy-5-(1-(tetrahydro-2H-pyran-4-yl)-1H-pyrazol-4-yl)benzaldehyde], the IC50 at human TLR2 [1] and at human TLR2 [2] was greater than 100 µM each time.
With `COc1cc(-c2cnn(-c3ccc(F)cc3)c2)cc(C=O)c1O` [Compound A6, 5-(1-(4-fluorophenyl)-1H-pyrazol-4-yl)-2-hydroxy-3-methoxybenzaldehyde], the IC50 at human TLR2 [1] turned out to be 12 µM; on human TLR2 [2], 14.1 µM.
In the same order, the values of `COc1cc(-c2cnn(-c3cccc(C(F)(F)F)c3)c2)cc(C=O)c1O` [Compound A9, 2-hydroxy-3-methoxy-5-(1-(3-(trifluoromethyl)phenyl)-1H-pyrazol-4-yl)benzaldehyde] are 5.1 µM and 3.8 µM.
On to `COc1ccc(Cn2cc(-c3cc(C=O)c(O)c(OC)c3)cn2)cc1` [Compound A10, 2-hydroxy-3-methoxy-5-(1-(4-methoxybenzyl)-1H-pyrazol-4-yl)benzaldehyde], for which the IC50 on human TLR2 [1] and at human TLR2 [2] was 5.2 µM each time.
For the molecule `O=Cc1cc(-c2cnn(-c3ccccc3)c2)cc(F)c1O` [Compound A11, 3-fluoro-2-hydroxy-5-(1-phenyl-1H-pyrazol-4-yl)benzaldehyde], the values for the IC50 at human TLR2 [1] and at human TLR2 [2] were 2 µM and 2.3 µM, respectively.
Turning to `Cc1cc(-c2cnn(-c3ccccc3)c2)cc(Cl)c1O` [Compound A17, 2-chloro-6-methyl-4-(1-phenyl-1H-pyrazol-4-yl)phenol], the IC50 at human TLR2 [1] was 43.4 µM; on human TLR2 [2] it was 52.6 µM.
Turning to `Oc1c(F)cc(-c2cnn(-c3ccccc3)c2)cc1F` [Compound A18, 2,6-difluoro-4-(1-phenyl-1H-pyrazol-4-yl)phenol], the 50% inhibitory concentration (IC50) on human TLR2 [1] and at human TLR2 [2] was greater than 100 µM throughout.
`O=Cc1cc(-c2cnn(-c3ccc(N4CCCCC4)cc3)c2)cc(F)c1O` [Compound A20, 3-fluoro-2-hydroxy-5-(1-(4-(piperidin-1-yl)phenyl)-1H-pyrazol-4-yl)benzaldehyde]: the IC50 on human TLR2 [1] came out at 0.2 µM; at human TLR2 [2], 0.5 µM.
On to `O=Cc1cc(-c2cnn(-c3ccc(N4CCOCC4)cc3)c2)cc(F)c1O` [Compound A21, 3-fluoro-2-hydroxy-5-(1-(4-morpholinophenyl)-1H-pyrazol-4-yl)benzaldehyde], for which the IC50 on human TLR2 [1] amounted to 1.1 µM; at human TLR2 [2], 2.6 µM.
In the same order, the values of `O=Cc1cc(-c2cnn(-c3cccc(N4CCCCC4)c3)c2)cc(F)c1O` [Compound A23, 3-fluoro-2-hydroxy-5-(1-(3-(piperidin-1-yl)phenyl)-1H-pyrazol-4-yl)benzaldehyde] are 0.9 µM and 0.8 µM.
On to `O=Cc1cc(-c2cnn(-c3cccc(N4CCOCC4)c3)c2)cc(F)c1O` [Compound A24, 3-fluoro-2-hydroxy-5-(1-(3-morpholinophenyl)-1H-pyrazol-4-yl)benzaldehyde], for which the IC50 was 5.4 µM on human TLR2 [1] and 4.3 µM on human TLR2 [2].
The corresponding values for `O=Cc1cc(-c2ccn(-c3ccc(N4CCCCC4)cc3)n2)cc(F)c1O` [Compound A28, 3-fluoro-2-hydroxy-5-(1-(4-(piperidin-1-yl)phenyl)-1H-pyrazol-3-yl)benzaldehyde] are 0.8 µM and 0.9 µM.
As to `O=Cc1cc(-c2ccn(-c3ccc(N4CCOCC4)cc3)n2)cc(F)c1O` [Compound A29, 3-fluoro-2-hydroxy-5-(1-(4-morpholinophenyl)-1H-pyrazol-3-yl)benzaldehyde], the IC50 worked out at 7.6 µM on human TLR2 [1] and 6.4 µM at human TLR2 [2].
Regarding `O=Cc1cc(-c2ccn(-c3cccc(N4CCCC4)c3)n2)cc(F)c1O` [Compound A30, 3-fluoro-2-hydroxy-5-(1-(3-(pyrrolidin-1-yl)phenyl)-1H-pyrazol-3-yl)benzaldehyde], the IC50 stood at 2.2 µM on human TLR2 [1] and 2.1 µM on human TLR2 [2].
Consider `O=Cc1cc(-c2ccn(-c3cccc(N4CCCCC4)c3)n2)cc(F)c1O` [Compound A31, 3-fluoro-2-hydroxy-5-(1-(3-(piperidin-1-yl)phenyl)-1H-pyrazol-3-yl)benzaldehyde], for which the IC50 on human TLR2 [1] was 6.2 µM; on human TLR2 [2] it was 3.4 µM.
Turning to `O=Cc1cc(-c2ccn(-c3cccc(N4CCOCC4)c3)n2)cc(F)c1O` [Compound A32, 3-fluoro-2-hydroxy-5-(1-(3-morpholinophenyl)-1H-pyrazol-3-yl)benzaldehyde], the IC50 at human TLR2 [1] worked out at 17.4 µM; on human TLR2 [2], 12.7 µM.
In the same order, the values of `Oc1c(F)cc(-c2cnn(-c3ccc(N4CCCC4)cc3)c2)cc1C1OCCCO1` [Compound A34, 2-(1,3-dioxan-2-yl)-6-fluoro-4-(1-(4-(pyrrolidin-1-yl)phenyl)-1H-pyrazol-4-yl)phenol] are 3.9 µM and 6.9 µM.
Consider `CN1CCN(/N=C/c2cc(-c3cnn(-c4ccc(N5CCCC5)cc4)c3)cc(F)c2O)CC1` [Compound A35, (E)-2-fluoro-6-(((4-methylpiperazin-1-yl)imino)methyl)-4-(1-(4-(pyrrolidin-1-yl)phenyl)-1H-pyrazol-4-yl)phenol], for which the results for the IC50 at human TLR2 [1] and at human TLR2 [2] were 0.7 µM and 1.6 µM, respectively.
In the case of `Oc1c(F)cc(-c2cnn(-c3ccc(N4CCCC4)cc3)c2)cc1/C=N/N1CCN(C2CC2)CC1` [Compound A36, (E)-2-(((4-cyclopropylpiperazin-1-yl)imino)methyl)-6-fluoro-4-(1-(4-(pyrrolidin-1-yl)phenyl)-1H-pyrazol-4-yl)phenol], the IC50 on human TLR2 [1] and on human TLR2 [2] was greater than 100 µM throughout.
Turning to `Oc1c(F)cc(-c2cnn(-c3ccc(N4CCCC4)cc3)c2)cc1/C=N/N1CCOCC1` [Compound A37, (E)-2-fluoro-6-((morpholinoimino)methyl)-4-(1-(4-(pyrrolidin-1-yl)phenyl)-1H-pyrazol-4-yl)phenol], the IC50 at human TLR2 [1] and on human TLR2 [2] was greater than 100 µM in each case.
As for `CC(=O)N/N=C/c1cc(-c2cnn(-c3ccc(N4CCCC4)cc3)c2)cc(F)c1O` [Compound A38, N′-(3-fluoro-2-hydroxy-5-(1-(4-(pyrrolidin-1-yl)phenyl)-1H-pyrazol-4-yl)benzylidene)acetohydrazide], the IC50 on human TLR2 [1] and at human TLR2 [2] was 0.4 µM throughout.
`Oc1c(F)cc(-c2cnn(-c3ccc(N4CCCC4)cc3)c2)cc1/C=N/c1ccccc1` [Compound A39, (E)-2-fluoro-6-((phenylimino)methyl)-4-(1-(4-(pyrrolidin-1-yl)phenyl)-1H-pyrazol-4-yl)phenol]: the IC50 on human TLR2 [1] and on human TLR2 [2] was 0.5 µM in each case.
Take `Oc1c(F)cc(-c2cnn(-c3ccc(N4CCCC4)cc3)c2)cc1/C=N/Oc1ccccc1` [Compound A40, (E)-3-fluoro-2-hydroxy-5-(1-(4-(pyrrolidin-1-yl)phenyl)-1H-pyrazol-4-yl)benzaldehyde O-phenyl Oxime]: the values for the half-maximal inhibitory concentration (IC50) at human TLR2 [1] and at human TLR2 [2] were 2.7 µM and 7.2 µM, respectively.
Turning to `O=Cc1cc(-c2cn(-c3cccc(N4CCCC4)c3)nn2)cc(F)c1O` [Compound A45, 3-fluoro-2-hydroxy-5-(1-(3-(pyrrolidin-1-yl)phenyl)-1H-1,2,3-triazol-4-yl)benzaldehyde], the IC50 at human TLR2 [1] and on human TLR2 [2] was 1.3 µM throughout.
In the case of `O=Cc1cc(-c2ccc(-c3ccc(N4CCCC4)cc3)s2)cc(F)c1O` [Compound A50, 3-fluoro-2-hydroxy-5-(5-(4-(pyrrolidin-1-yl)phenyl)thiophen-2-yl)benzaldehyde], the figures for the IC50 on human TLR2 [1] and on human TLR2 [2] were 0.9 µM and 4.1 µM, respectively.
Regarding `O=Cc1cc(-c2ncc(-c3ccccc3)o2)cc(F)c1O` [Compound A89, 3-fluoro-2-hydroxy-5-(5-phenyloxazol-2-yl)benzaldehyde], the IC50 at human TLR2 [1] and at human TLR2 [2] was greater than 100 µM throughout.

A word on the IC50: it is the concentration that inhibits the measured activity by half.
